Laboratory results: ChEMBL document CHEMBL1275310, “Synthesis and screening of some novel fused thiophene and thienopyrimidine derivatives for anti-avian influenza virus (H5N1) activity” (2010)

Experiments:
Assay type in all cases: functional
Influenza A virus [1] = experiment: Antiviral activity against Influenza A virus (A/chicken/Egypt/1/2006 (H5N1)) infected in MDCK cells assessed as virus-induced cytopathogenicity at 40 ug after 3 to 4 days by plaque reduction assay
Influenza A virus [2] = experiment: Antiviral activity against Influenza A virus (A/chicken/Egypt/1/2006 (H5N1)) infected in MDCK cells assessed as virus-induced cytopathogenicity at 20 ug after 3 to 4 days by plaque reduction assay
Influenza A virus [3] = experiment: Antiviral activity against Influenza A virus (A/chicken/Egypt/1/2006 (H5N1)) infected in MDCK cells assessed as virus-induced cytopathogenicity at 5 ug after 3 to 4 days by plaque reduction assay
Influenza A virus [4] = experiment: Antiviral activity against Influenza A virus (A/chicken/Egypt/1/2006 (H5N1)) infected in MDCK cells assessed as virus-induced cytopathogenicity at 10 ug after 3 to 4 days by plaque reduction assay

Row | SMILES | inhibition (INH) (Influenza A virus [1]) [%] | inhibition (INH) (Influenza A virus [2]) [%] | inhibition (INH) (Influenza A virus [3]) [%] | inhibition (INH) (Influenza A virus [4]) [%]
1 | O=c1[nH]c(=S)[nH]c2sc3c(c12)-c1ccccc1CC3 | 65 |  |  | 
2 | O=c1[nH]c(=O)c2c3c(sc2[nH]1)CCc1ccccc1-3 | 98 | 95 | 92 | 94
3 | NC(=O)c1c(N)sc2c1-c1ccccc1CC2 | 89 |  |  | 
